Experiments:
Format in all cases: in vivo
[1] = test system: upland rice (Oryza sp., var. Tebonnet, RICE); experiment: Post-emerge test, crop safety; conditions: post-emerge, crop damage rating 0-100 at 14 days after application
How it was run: (§1)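 Applied at 15–1000 g ai/ha from acetone in 187 l/ha spray volume. Post-emergence applications included 0.25% v/v non-ionic surfactant and reached plants sown 8–21 days before. Pre-emergence applications were incorporated by surface watering. Efficacy or crop damage was rated on a 0–100 scale after 14 days.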

[2] = test system: field corn (Zea mays L., var. Dekalb 535, CORN); experiment: Post-emerge test, crop safety; conditions: post-emerge, crop damage rating 0-100 at 14 days after application
How it was run: as §1

[3] = test system: upland rice (Oryza sp., var. Tebonnet, RICE); experiment: Pre-emerge test, crop safety; conditions: crop damage, pre-emerge, phytotoxicity rating 0-100 at 14 days after application
How it was run: as §1

[4] = test system: field corn (Zea mays L., var. Dekalb 535, CORN); experiment: Pre-emerge test, crop safety; conditions: crop damage, pre-emerge, phytotoxicity rating 0-100 at 14 days after application
How it was run: as §1

[5] = test system: sicklepod (Cassia obtusifolia, CASOB); experiment: Pre-emerge test, greenhouse herbicide activity screening; conditions: pre-emerge, phytotoxicity rating 0-100 at 14 days after application
How it was run: as §1

[6] = test system: large crabgrass (Digitaria sanguinalis, DIGSA); experiment: as above; conditions: pre-emerge, phytotoxicity rating 0-100 at 14 days after application
How it was run: as §1

[7] = test system: ivyleaf morningglory (Ipomoea hederacea, IPOHE); experiment: as above; conditions: pre-emerge, phytotoxicity rating 0-100 at 14 days after application
How it was run: as §1

[8] = test system: lambsquarters (Chenopodium album, CHEAL); experiment: as above; conditions: pre-emerge, phytotoxicity rating 0-100 at 14 days after application
How it was run: as §1

[9] = test system: barnyardgrass (Echinochloa crus-galli, ECHCG); experiment: as above; conditions: pre-emerge, phytotoxicity rating 0-100 at 14 days after application
How it was run: as §1

[10] = test system: velvetleaf (Abutilon theophrasti, ABUTH); experiment: as above; conditions: pre-emerge, phytotoxicity rating 0-100 at 14 days after application
How it was run: as §1

[11] = test system: green foxtail (Setaria viridis, SETVI); experiment: as above; conditions: pre-emerge, phytotoxicity rating 0-100 at 14 days after application
How it was run: as §1

[12] = test system: redroot pigweed (Amaranthus retroflexus, AMARE); experiment: as above; conditions: pre-emerge, phytotoxicity rating 0-100 at 14 days after application
How it was run: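 Compounds in acetone were track-sprayed at 15-1000 g ai/ha (187 l/ha) on sandy loam pots: pre-emerge one day after seeding, post-emerge at 2-3 leaf stage with 0.25% v/v non-ionic surfactant. Phytotoxicity was rated 14 days later on a 0 (no damage) to 100 (complete death) scale.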

[13] = test system: sicklepod (Cassia obtusifolia, CASOB); experiment: Post-emerge test, greenhouse herbicide activity screening; conditions: post-emerge, phytotoxicity rating 0-100 at 14 days after application
How it was run: (§2)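 Compounds in acetone were track-sprayed at 187 l/ha, 15–1000 g ai/ha, onto sandy loam pots. Pre-emerge seeds were sown one day before spraying, with surface watering afterwards. Post-emerge plants were at the 2–3 leaf stage and sprayed with 0.25% v/v non-ionic surfactant. Injury was rated 0–100 at 14 days.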

[14] = test system: large crabgrass (Digitaria sanguinalis, DIGSA); experiment: as above; conditions: post-emerge, phytotoxicity rating 0-100 at 14 days after application
How it was run: as §2

[15] = test system: ivyleaf morningglory (Ipomoea hederacea, IPOHE); experiment: as above; conditions: post-emerge, phytotoxicity rating 0-100 at 14 days after application
How it was run: as §2

[16] = test system: redroot pigweed (Amaranthus retroflexus, AMARE); experiment: as above; conditions: post-emerge, phytotoxicity rating 0-100 at 14 days after application
How it was run: as §2

[17] = test system: lambsquarters (Chenopodium album, CHEAL); experiment: as above; conditions: post-emerge, phytotoxicity rating 0-100 at 14 days after application
How it was run: as §2

[18] = test system: barnyardgrass (Echinochloa crus-galli, ECHCG); experiment: as above; conditions: post-emerge, phytotoxicity rating 0-100 at 14 days after application
How it was run: as §2

[19] = test system: velvetleaf (Abutilon theophrasti, ABUTH); experiment: as above; conditions: post-emerge, phytotoxicity rating 0-100 at 14 days after application
How it was run: as §2

[20] = test system: green foxtail (Setaria viridis, SETVI); experiment: as above; conditions: post-emerge, phytotoxicity rating 0-100 at 14 days after application
How it was run: as §2

SMILES: Cc1c(Cl)cc(F)c(-n2c(=O)cc(C(F)(F)F)n(C)c2=O)c1NC(=O)OCc1cccc([N+](=O)[O-])c1 [4-67]
- Post-emerge Herbicidal Activity RICE ([1]; 63 g ai/ha): 50
- Post-emerge Herbicidal Activity RICE ([1]; 250 g ai/ha): 70
- Post-emerge Herbicidal Activity CORN ([2]; 63 g ai/ha): 55
- Post-emerge Herbicidal Activity CORN ([2]; 250 g ai/ha): 70
- Pre-emerge Herbicidal Activity RICE ([3]; rate 63 g ai/ha): 60
- Pre-emerge Herbicidal Activity RICE ([3]; rate 250 g ai/ha): 40
- Pre-emerge Herbicidal Activity CORN ([4]; rate 63 g ai/ha): 5
- Pre-emerge Herbicidal Activity CORN ([4]; rate 250 g ai/ha): 15
- Pre-emerge Herbicidal Activity CASOB ([5]; rate 63 g ai/ha): 40
- Pre-emerge Herbicidal Activity CASOB ([5]; rate 250 g ai/ha): 60
- Pre-emerge Herbicidal Activity DIGSA ([6]; rate 63 g ai/ha): 100
- Pre-emerge Herbicidal Activity DIGSA ([6]; rate 250 g ai/ha): 100
- Pre-emerge Herbicidal Activity IPOHE ([7]; rate 63 g ai/ha): 80
- Pre-emerge Herbicidal Activity IPOHE ([7]; rate 250 g ai/ha): 90
- Pre-emerge Herbicidal Activity CHEAL ([8]; rate 63 g ai/ha): 100
- Pre-emerge Herbicidal Activity CHEAL ([8]; rate 250 g ai/ha): 100
- Pre-emerge Herbicidal Activity ECHCG ([9]; rate 63 g ai/ha): 40
- Pre-emerge Herbicidal Activity ECHCG ([9]; rate 250 g ai/ha): 80
- Pre-emerge Herbicidal Activity ABUTH ([10]; rate 63 g ai/ha): 100
- Pre-emerge Herbicidal Activity ABUTH ([10]; rate 250 g ai/ha): 100
- Pre-emerge Herbicidal Activity SETVI ([11]; rate 63 g ai/ha): 90
- Pre-emerge Herbicidal Activity SETVI ([11]; rate 250 g ai/ha): 100
- Pre-emerge Herbicidal Activity AMARE ([12]; rate 63 g ai/ha): 100
- Pre-emerge Herbicidal Activity AMARE ([12]; rate 250 g ai/ha): 100
- Post-emerge Herbicidal Activity CASOB ([13]; 63 g ai/ha): 100
- Post-emerge Herbicidal Activity CASOB ([13]; 250 g ai/ha): 100
- Post-emerge Herbicidal Activity DIGSA ([14]; 63 g ai/ha): 70
- Post-emerge Herbicidal Activity DIGSA ([14]; 250 g ai/ha): 80
- Post-emerge Herbicidal Activity IPOHE ([15]; 63 g ai/ha): 100
- Post-emerge Herbicidal Activity IPOHE ([15]; 250 g ai/ha): 100
- Post-emerge Herbicidal Activity AMARE ([16]; 63 g ai/ha): 100
- Post-emerge Herbicidal Activity AMARE ([16]; 250 g ai/ha): 100
- Post-emerge Herbicidal Activity CHEAL ([17]; 63 g ai/ha): 100
- Post-emerge Herbicidal Activity CHEAL ([17]; 250 g ai/ha): 100
- Post-emerge Herbicidal Activity ECHCG ([18]; 63 g ai/ha): 40
- Post-emerge Herbicidal Activity ECHCG ([18]; 250 g ai/ha): 70
- Post-emerge Herbicidal Activity ABUTH ([19]; 63 g ai/ha): 100
- Post-emerge Herbicidal Activity ABUTH ([19]; 250 g ai/ha): 100
- Post-emerge Herbicidal Activity SETVI ([20]; 63 g ai/ha): 90
- Post-emerge Herbicidal Activity SETVI ([20]; 250 g ai/ha): 90
